Test results reported in the NIST ThermoML archive (doi:10.1021/je300345m).

How the values were obtained:
[1] = Liquid, Vibrating tube method
[2] = xn = mol fraction of the nth substance listed; details: Liquid, Vibrating tube method, x2 = 0

CN(CCO)CCO [N-methyldiethanolamine]
[1]
Details	mass density [kg/m3]
298.15 K, 100 kPa	1036
303.15 K, 100 kPa	1032.4
308.15 K, 100 kPa	1028.6
313.15 K, 100 kPa	1024.8
318.15 K, 100 kPa	1021
323.15 K, 100 kPa	1017.2
328.15 K, 100 kPa	1013.3
333.15 K, 100 kPa	1009.4
338.15 K, 100 kPa	1005.6
343.15 K, 100 kPa	1001.7
348.15 K, 100 kPa	997.7
353.15 K, 100 kPa	993.8
358.15 K, 100 kPa	989.9
363.15 K, 100 kPa	985.9
373.15 K, 700 kPa	978.6
383.15 K, 700 kPa	970.3
393.15 K, 700 kPa	962.1
403.15 K, 700 kPa	953.9
413.15 K, 700 kPa	945.6
423.15 K, 700 kPa	937

O [water] + CN(CCO)CCO
[2]
Details	mass density [kg/m3]
323.15 K, 100 kPa	988
328.15 K, 100 kPa	985.7
333.15 K, 100 kPa	983.2
338.15 K, 100 kPa	980.5
343.15 K, 100 kPa	977.7
348.15 K, 100 kPa	974.8
353.15 K, 100 kPa	971.8
358.15 K, 100 kPa	968.6
363.15 K, 100 kPa	965.3
373.15 K, 700 kPa	958.6
383.15 K, 700 kPa	951.2
393.15 K, 700 kPa	943.4
403.15 K, 700 kPa	935.1
413.15 K, 700 kPa	926.3
423.15 K, 700 kPa	917.1

OCCNCCO [diethanolamine]
[1]
Details	mass density [kg/m3]
298.15 K, 100 kPa	1093.6
303.15 K, 100 kPa	1090.4
308.15 K, 100 kPa	1087.1
313.15 K, 100 kPa	1083.8
318.15 K, 100 kPa	1080.6
323.15 K, 100 kPa	1077.4
328.15 K, 100 kPa	1074.1
333.15 K, 100 kPa	1070.8
338.15 K, 100 kPa	1067.4
343.15 K, 100 kPa	1064
348.15 K, 100 kPa	1060.6
353.15 K, 100 kPa	1057.2
358.15 K, 100 kPa	1053.7
363.15 K, 100 kPa	1050.1
373.15 K, 700 kPa	1043.3
383.15 K, 700 kPa	1035.5
393.15 K, 700 kPa	1028.1
403.15 K, 700 kPa	1020.5
413.15 K, 700 kPa	1012.9
423.15 K, 700 kPa	1004.8

O [water] + OCCNCCO
[2]
Details	mass density [kg/m3]
323.15 K, 100 kPa	988
328.15 K, 100 kPa	985.7
333.15 K, 100 kPa	983.2
338.15 K, 100 kPa	980.5
343.15 K, 100 kPa	977.7
348.15 K, 100 kPa	974.8
353.15 K, 100 kPa	971.8
358.15 K, 100 kPa	968.6
363.15 K, 100 kPa	965.3
373.15 K, 700 kPa	958.6
383.15 K, 700 kPa	951.2
393.15 K, 700 kPa	943.4
403.15 K, 700 kPa	935.1
413.15 K, 700 kPa	926.3
423.15 K, 700 kPa	917.1
